The values that follow come from patent publication US20220347294A1, “COMPOSITIONS AND METHODS FOR INCREASING THE EFFICACY OF IMMUNOTHERAPIES AND VACCINES” (The Regents of the University of Michigan, priority 2019, published 2022).

Data set [1] is described as follows: Fiber gel formation: inulin gel with added natural fibers or excipients. Format: physicochemical. The conditions noted are these: heated at 70° C. for 5 minutes, cooled overnight. The text has this: FIG. 24: Inulin gel was formed after adding various amounts of natural fibers or excipients. The values shown are the maximum amount of each ingredient that could be added to 23% w/w inulin gel without disrupting the gel formation.
Experiments were next conducted involving the formation of new fiber gels by combining inulin with other natural dietary fibers or pharmaceutical excipients. Briefly, inulin gels were manufactured by first mixing 23% w/w inulin together with other excipients, including resistant potato starch, pectin, guar gum, bean gum, gelatin, or glycerol. Other natural fibers would provide additional nutrient source for commensal microbiome, while other excipients served as thickening reagents in these formulations. The mixtures were then heated at 70° C. for 5 minutes, followed by cooling at room temperature overnight. During the manufacturing processes, both pre-dissolving and dry-blending were used in order to add the excipients, based on individual dissolutions in water. […] The ingredients were first mixed in water (top panel), heated at 70° C. for 5 minutes (middle panel), followed by cooling at room temperature overnight, leading to the formation of fiber gels (bottom panel) (FIG. 23).
Experiments were next conducted that varied the amount of natural fibers and excipients added to inulin gel and determined the ideal composition for forming fiber gels. […] The indicated values are the maximum amount of each ingredient that could be added to 23% w/w inulin gel without disrupting gel formation.

For another data set, the system named is CT26 tumor. The data set is described as follows: Tumor microenvironment analysis (tumor-infiltrating cells, flow cytometry). Format: in vivo, BALB/c mice. To be noted: combined with α-PD-1 IgG, day 24. As to the method:
After treatment with various samples, tumor tissues were excised at preset time points for analysis of tumor-infiltrating T cells. Tumor tissues were excised, cut into small pieces, and incubated with collagenase type IV (1 mg/ml) and of DNase I (0.1 mg/ml) with gentle shaking. After 30 min, cell suspension was filtered through a 70-μm strainer. Cells were washed with FACS buffer and blocked with anti-CD16/32 antibody. Cells were then stained with various antibodies (CD4 Monoclonal Antibody (GK1.5)-PE (eBioscience), APC-Anti-CD45 Rat Monoclonal Antibody (clone: 30-F11), FITC-Anti-CD45 Rat Monoclonal Antibody (clone: 30-F11), FITC-Rat Anti-Mouse CD8a Clone 53-6.7 (BD Biosciences), PE labeled H-2L-restricted SPSYVYHQF (SEQ ID NO.: 1), FITC-Anti-CD86 Rat Monoclonal Antibody (clone: GL-1, BioLegend), PE-CD11c Armenian Hamster anti Mouse (Clone: N418, eBioscience), PE-Cy7-Anti-mouse PD-1 (clone: 29F.1A12, BioLegend), FITC-CD44 Rat anti-Human/Mouse (clone: IM7, eBioscience), PE-Cy7-CD62L Monoclonal Antibody (MEL-14) (eBioscience), PE-Tcf1/Tcf7 (C63D9) Rabbit mAb (Cell Signaling Technology, #14456), PE-Cy7-Anti-mouse CD86 (Clone: GL1, BD Bioscience), FITC anti-mouse/human CD11b (M1/70, BioLegend), PE-anti-mouse F4/80 (BM8, BioLegend), or APC anti-mouse CD206 (MMR, BioLegend)). The cells were washed and stained with DAPI, or 7-AAD, or efluor 450 for flow cytometric analysis.

Data set [2] has as its system AH1-specific CD8+ T cells. The data set is described as follows: Tetramer analysis of AH1-specific CD8+ T cells in PBMCs. Format: in vivo, BALB/c mice. To be noted: prophylactic oral gavage combined with α-PD-1 IgG; peripheral blood day 22. The source says:
The effect of these materials were next tested on systemic immune responses. The surrogate marker of tumor specific antigen, MHC-I minimal epitope of CT-26 gp70 (AH1) (H-2L^d-restricted SPSYVYHQF (SEQ ID NO.: 1)), was employed to quantitate the frequency of AH1-specific CD8^+ T cells among peripheral blood mononuclear cells (PBMCs). Mice orally gavaged with inulin and melatonin combined with α-PD-1 IgG induced 1.7-fold and 1.8-fold greater frequencies of AH1-specific CD8^+ T cells, compared with α-PD-1 treatment alone (FIGS. 1E and F).
Peripheral blood mononuclear cells (PBMCs) were collected at preset times to analyze tumor antigen-specific CD8^+ T cells in the systemic circulation. Red blood cells were lysed, and the remaining cells were blocked with anti-CD16/32 antibody for 10 min and stained with peptide-MHC tetramer, including H-2L^d-restricted SPSYVYHQF (SEQ ID NO.: 1) or H-2D^b-restricted ASMTNMELM (SEQ ID NO.: 3). Both the tetramers were provided by NIH Tetramer Core Facility. Cells were also stained anti-CD8-APC (BD Biosciences, #553035) and DAPI for flow cytometric analysis.

The subject of the next data set is CT26 cells. The data set is described as follows: Therapeutic oral gavage plus α-PD-1 in the CT26 tumor model. In kind it is in vivo, BALB/c mice. The conditions noted are these: 60 mg for inulin, 50 mg/Kg for melatonin.
The nature of data set [3]: Potato starch gel formation. Format: physicochemical. To be noted: in water, gentle stirring at 70° C., when the swelling was completed. As to the method: FIG. 22: Food grade potato starch was pre-hydrated at concentrations of 0.1, 0.5, 2.5, and 5% w/v in water, followed by gentle stirring at 70° C. After cooling, gel formation was examined.
Experiments were next conducted that examined gel formation using potato starch, another prebiotic natural fiber. The impact of potato starch concentration on gel formation was examined. Food grade potato starch (Bob's Red Mill) was pre-hydrated at desired concentrations of 0.1, 0.5, 2.5, and 5% w/v in water, followed by gentle stirring at 70° C. […] Potato starch was instantly gelatinized at concentrations above 5% w/v when the swelling was completed.

Description for CT26 cells: (A) 1.5×10^5 CT26 cells were inoculated in BALB/c mice subcutaneously (sc) on day 0. Mice were gavaged from day 7 (5 times per week). On days 11, 15, 19 and 23, α-PD-1 was injected intraperitoneally (ip) at 100 μg per dose. (B) The average tumor growth curves for mice gavaged with various compounds. Data represent mean±SEM. (C) Individual tumor growth curves and (D) survival rate curves of various groups. […] All the data are from 2-3 independent experiments; n=10 (B, C, D), n=7-10 (E, F) *p<0.05, **p<0.01, analysed by two-way ANOVA (B), one-way ANOVA (E, F) or log-rank (Mantel-Cox) test.
(B) The average tumor growth curves and individual tumor growth curve for mice gavaged with inulin or inulin gel (60 mg/dosage). 1.5×10^5 CT26 cells were inoculated in BALB/c mice subcutaneously. Gavage started from day 7 (5 times per week) and 100 μg of α-PD-1 was ip injected on days 11, 15, 19, 23 and 27. (C) The survival rate curves of various groups. […] PBS was used as a control. […] Shown are the average and individual tumor growth curves for tumor-bearing mice. IgG antibody was used as a control group. Data represent mean SEM. All the data are from 2-3 independent experiments; n=10 (B, C), n=5 (D, I), n=10-15 (E), n=4-7 (G, F), *p<0.05, **p<0.01, ***p<0.001, analysed by one-way ANOVA (E, F), two-way ANOVA (B, I), or log-rank (Mantel-Cox) test (C).
Female C57BL/6 or BALB/c mice of 6-8-week old were obtained from Jackson Laboratory. BALB/c mice were inoculated with 1.5×10^5 CT26 cells per mouse, while C57BL/6 mice were inoculated with 1.2×10^6 MC38 cells per mouse on the right flank by subcutaneous injection on day 0. Tumor-bearing mice were randomly assigned to different groups on day 5. For prophylactic antitumor study, mice were received oral gavage with melatonin (100 mg/Kg bodyweight/dosage), EGCG (100 mg/Kg bodyweight/dosage), fucoidan (200 mg/Kg bodyweight/dosage), oligofructose (120 mg/dosage), or inulin (120 mg/dosage) three times for one week prior to tumor inoculation. After tumor inoculation, mice received oral gavage three times in the first week, followed by five times per week. Mice were injected i.p. with α-PD-1 antibody (100 μg/dosage) on days 10, 14, 18 and 22 post tumor inoculation. For the therapeutic therapy, mice were inoculated with tumor cells on day 0 as indicated above and treated with the indicated samples by oral gavage starting day 7 post tumor inoculation.

With `OCC(O)CO` [glycerol], the “maximum amount of ingredient that could be added to 23% w/w inulin gel without disrupting gel formation” value in data set [1] was 50 % (w/w). Regarding `COc1ccc2[nH]cc(CCNC(C)=O)c2c1` [melatonin, reference compound], the “intratumoral infiltration of T cells compared with α-PD-1 IgG alone” value in the data set on CT26 tumor is “significantly enhanced”. Besides, the “frequencies of AH1-specific CD8+ T cells among PBMCs, fold greater than α-PD-1 treatment alone” value in data set [2] is given as 1.8 fold. Moreover, the “combination efficacy with α-PD-1 against tumor growth after reducing the dosage by half” value with CT26 cells is on record as “did not compromise”. As to gelatin, the “maximum amount of ingredient that could be added to 23% w/w inulin gel without disrupting gel formation” value in data set [1] is given as 5.0 % (w/w). On the same count and under the same terms, the value for guar gum was 0.5 % (w/w); that for pectin was 2 % (w/w).

For potato starch, the “concentration at which potato starch was instantly gelatinized” value in data set [3] was “above 5 % w/v”. The “maximum amount of ingredient that could be added to 23% w/w inulin gel without disrupting gel formation” value in data set [1] was 5 % (w/w).
